Results: publication PMC6033896, “Discovery of Mcl-1 inhibitors from integrated high throughput and virtual screening” (Scientific Reports, 2018)

What was measured:
[1] = tested on: Bak−/− single knockout MEFs; assay: MEF cell death, propidium iodide flow cytometry; type: cell-based, mouse; conditions: increasing concentrations, 15 h
Procedure: (§1) MEF cells, including wild-type, Bax/Bak double knockout, Bax−/− single knockout, and Bak−/− single knockout were tested and characterized (Supplementary Fig. S3). The cells were cultured in DMEM (Life Technologies), supplemented with 10% fetal bovine serum (FBS) (Thermo Scientific HyClone) and 1% Penicillin/streptomycin solution (Life Technologies). The retrovirally transduced lymphoma cells isolated from Eμ-myc transgenic mice were provided by Ricky W. Johnstone at the University of Melbourne, Melbourne, Australia and cultured as previously described[37],[65].
(§2) MEFs were seeded in 24-well plates at 0.5 × 10^5 cells/well, left to adhere for 5 hours and then treated for 15 hours with increasing concentrations of the compounds. The cells were harvested, washed with phosphate-buffered saline (PBS) and stained with 0.025 mg/ml propidium iodide (MP Biomedicals). The percentage of the propidium iodide positive population was determined by flow cytometry and calculated using WinList 3.0.

[2] = tested on: wild-type MEFs; assay: MEF cell death, propidium iodide flow cytometry; type: cell-based, mouse; conditions: increasing concentrations, 15 h
Procedure: as §1, §2

[3] = tested on: Bax/Bak double knockout (DKO) MEFs; assay: MEF cell death, propidium iodide flow cytometry; type: cell-based, mouse; conditions: increasing concentrations, 15 h
Procedure: as §1, §2

[4] = tested on: Bax−/− single knockout MEFs; assay: MEF cell death, propidium iodide flow cytometry; type: cell-based, mouse; conditions: increasing concentrations, 15 h
Procedure: as §1, §2

[5] = tested on: Eµ-myc lymphoma cells overexpressing Bcl-xL; assay: Eµ-myc lymphoma cell viability, flow cytometry; type: cell-based, mice; conditions: increasing concentrations, 15 h
Procedure: as §1
(§3) The Mcl-1, Bcl-2, and Bcl-xL retroviral transduced lymphoma Eμ-myc cells were seeded in 12-well plates at 0.5 × 10^6 cells/well. […] The cells were harvested and stained with violet LIVE/DEAD Fixable Dead Cell Stain Kit (Invitrogen) according to manufacturer’s protocol. The percentage of fluorescent positive cells was determined by flow cytometry and calculated using WinList 3.0.

[6] = tested on: Eµ-myc lymphoma cells overexpressing Bcl-2; assay: Eµ-myc lymphoma cell viability, flow cytometry; type: cell-based, mice; conditions: increasing concentrations
Procedure: as §1, §3

[7] = tested on: Eµ-myc lymphoma cells overexpressing Mcl-1; assay: Eµ-myc lymphoma cell viability, flow cytometry; type: cell-based, mice; conditions: increasing concentrations, 15 h
Procedure: as §1, §3

[8] = tested on: Mcl-1/Noxa interaction; parameters: method as in PubChem BioAssay AID 1417; conditions: Dose Response Confirmation for Mcl-1/Noxa Interaction Inhibitors; ref PubChem BioAssay AID 1417; cited from earlier work
[9] = target: T1, Mcl-1 protein (Homo sapiens, UniProt Q07820); assay: FP-based competitive binding assay with fluorescent labelled Bid BH3 peptide; conditions: competition with fluorescent Bid probe 2 nM, 20 nM Mcl-1 for purchased compounds, 10 nM for synthesized library
T1 construct: human Mcl-1 (residues 171–323); His tag (pHis-TEV vector) (N, cleaved yes); made in house; host or cells: E. coli BL21 (DE3)
T1 sequence (Q07820 171-323): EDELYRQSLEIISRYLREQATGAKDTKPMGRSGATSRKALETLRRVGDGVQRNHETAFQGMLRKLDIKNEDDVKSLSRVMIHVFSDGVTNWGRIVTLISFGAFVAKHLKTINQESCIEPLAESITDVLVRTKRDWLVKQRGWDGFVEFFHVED
Procedure: (§4) FP-based binding assays were developed and optimized to determine the binding affinities of inhibitors to the recombinant Mcl-1, Bcl-2, Bcl-xL, and Bfl-1, proteins. […] The fluorescent Bid probe was fixed at 2 nM for all assays, except for Bfl-1, where 1 nM was used. 5 μL of the tested compound in DMSO and 120 μL of protein/probe complex in the assay buffer were added to assay plates (Corning #3792), incubated at room temperature for 3 h, and the polarization values (mP) were measured at an excitation wavelength of 485 nm and an emission wavelength of 530 nm using the plate reader Synergy H1 Hybrid, BioTek. IC50 values were determined by nonlinear regression fitting of the competition curves (GraphPad Prism 6.0 Software). The Ki values were calculated as described previously.
(§5) 1. List of compounds purchased from vendors
(§6) Compound s 5, 6, 7, 8 and S3, S4, S5, S6 S7, S8, S9, S10, S17 were purchased from […]
(§7) Compound s 9, 10, 11 and S11, S12, S13 were purchased from I nterbioscreen […]
His-tagged proteins containing human Mcl-1 (residues 171–323), the isoform 2 construct of the human Bcl-2 [Bcl2-2 construct for protein production starts with the Bcl2 sequence of 1-34 a a, followed by the Bcl-xL seq uence of 35-50 aa, and ends with the Bcl-2 sequenc e of 92-202aa.], Bcl-xL (Human Bcl-xL protein, which has an internal deletion for the 45 -85 amino acid residues and a C -terminal truncation for the amino acid residues 212-233), and Bf l-1 (residues 1-151), were expres sed from the pHis -TEV vector (a modified pET vector) in E. coli BL21 (DE3) cells. Cells were grown at 37 °C in 2×YT containing antibiotics to an OD600 density of 1.5, 1 and 0.8 for Mcl-1, Bcl-xL and Bcl-2 respectively. Protein expression wa s induced by 0 .4 mM IPTG at 20 °C overnight for all proteins except for Bf l-1 which was e xpressed at 3 7 °C for four hours . Cells were lysed in 20 mM HEPES pH 7.5, 200 mM NaCl, 0.1% βME with Leupeptin/Aprotinin (Mcl-1), 25mM Tris pH 8.5, 200mM NaCl (Bcl-2), 50mM Tris pH 7.5, 200 mM NaCl (Bcl-xL) and 50 mM Tris pH 8, 500 mM NaCl, 0. 1% βME with Leupeptin/Aprotinin (Bf l-1). All […]
proteins were purified from the soluble fraction using Ni-NTA resin (QIAGEN), following the manufacturer’s instructions. For purification of TEV-cleaved protein, the amino-terminal His tag was cleaved by incubation with TEV protease and the protein was further purified by anion exchange (Source Q) and gel filtration chromatography (Superdex 75, Amersham Biosciences) in 20mM HEPES pH 7.0, 50 mM NaCl (Mcl-1), […]
NaCl, 0.1% βME (Bcl-xL) and 25 mM Tris pH 7.5, 150 mM NaCl, 25% Glycerol, 0.1% βME ( Bf l-1). His-tagged Mcl-1 protein was used for TR-FRET assay and HSQC-NMR.
His-TEV cleaved Mcl-1, Bcl-2, Bcl-xL, and Bf l-1 were used in fluorescent polarization and surface plasmon resonance binding assays.
Mutant Mcl-1 protein wa s prepared by the QuikChange site -directed mutagenesi s method (Stratagene) , where Arg263 was mutated to Ala. The R263A expression pla smid was transformed into Rosetta2 DE3 cells and purified by the same method as the wildtype protein. Cultures were grown to an OD 600 of 1. 5 at 37 °C in Terrific Broth, induced with 0. 4 mM IPTG, and express ed overnight at 20 °C. The follow-up purification was performed the same way as was for Mcl-1 wild-type recombinant

[10] = target: T1, Mcl-1 protein; assay: SPR-based solution competitive binding assay, immobilized biotin-labelled Bim BH3 peptide; conditions: Mcl-1 20 nM; competition with immobilized Bim BH3 peptide
Procedure: The solution competitive SPR-based assay was performed on Biacore 2000 in a similar way as was already reported. Briefly, N terminal biotin-labelled Bim BH3 peptide (141–166 amino acids) was immobilized on streptavidin (SA) chip giving a density of 800 RU (Response Units). The pre-incubated Mcl-1 protein (20 nM) with tested small-molecule inhibitors for at least 30 min was injected over the surfaces of the chip using assay buffer HBS-P (GE, #BR100368). Response units were measured at 15 s in the dissociation phase, and IC50 values were determined by nonlinear least-squares analysis using GraphPad Prism 6.0 software.

[11] = target: T2, Bfl-1 (Homo sapiens, UniProt Q16548); assay: FP-based competitive binding assay with FAM-Bid; conditions: Bfl-1
T2 construct: Bf l-1 (residues 1-151); His tag (pHis-TEV vector) (N, cleaved yes); made in house; host or cells: E. coli BL21 (DE3)
T2 sequence (Q16548 1-151): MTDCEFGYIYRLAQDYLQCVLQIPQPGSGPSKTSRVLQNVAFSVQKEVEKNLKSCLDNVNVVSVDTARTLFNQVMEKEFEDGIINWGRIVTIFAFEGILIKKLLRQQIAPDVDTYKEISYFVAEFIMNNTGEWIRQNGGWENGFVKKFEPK
Procedure: as §4, §5, §6, §7
His-tagged proteins containing human Mcl-1 (residues 171–323), the isoform 2 construct of the human Bcl-2 [Bcl2-2 construct for protein production starts with the Bcl2 sequence of 1-34 a a, followed by the Bcl-xL seq uence of 35-50 aa, and ends with the Bcl-2 sequenc e of 92-202aa.], Bcl-xL (Human Bcl-xL protein, which has an internal deletion for the 45 -85 amino acid residues and a C -terminal truncation for the amino acid residues 212-233), and Bf l-1 (residues 1-151), were expres sed from the pHis -TEV vector (a modified pET vector) in E. coli BL21 (DE3) cells. Cells were grown at 37 °C in 2×YT containing antibiotics to an OD600 density of 1.5, 1 and 0.8 for Mcl-1, Bcl-xL and Bcl-2 respectively. Protein expression wa s induced by 0 .4 mM IPTG at 20 °C overnight for all proteins except for Bf l-1 which was e xpressed at 3 7 °C for four hours . Cells were lysed in 20 mM HEPES pH 7.5, 200 mM NaCl, 0.1% βME with Leupeptin/Aprotinin (Mcl-1), 25mM Tris pH 8.5, 200mM NaCl (Bcl-2), 50mM Tris pH 7.5, 200 mM NaCl (Bcl-xL) and 50 mM Tris pH 8, 500 mM NaCl, 0. 1% βME with Leupeptin/Aprotinin (Bf l-1). All

Cc1c(-c2c(-c3ccc(F)o3)sc3ncnc(OC(Cc4ccccc4OCc4ccnn4CC(F)(F)F)C(=O)O)c23)ccc(OCCN2CCN(C)CC2)c1Cl (centres unmarked) [Compound S63845, reference compound]
cell death in Bak−/− MEFs [1]: not
cell death in wild-type MEFs [2]: induces cell death
cell death in Bax/Bak DKO MEFs [3]: not
cell death in Bax−/− MEFs [4]: not
effect on Eµ-myc cells overexpressing Bcl-xL [5]: sparing
effect on Eµ-myc cells overexpressing Bcl-2 [6]: sparing
killing of Eµ-myc cells overexpressing Mcl-1 [7]: selectively killing

Cc1ccc2nc(N3C(=O)C(O)=C(C(=O)c4cc5ccccc5o4)C3c3cccs3)sc2c1 (centres unmarked) [Compound 4]
IC50 [8]: 2.4 µM
IC50 [9]: 2.4 ± 1.1 µM
IC50 [10]: 4.5 ± 0.3 µM

CCOc1ccc(C(=O)Nc2cc(NC(=O)c3ccc(OCC)c(Cl)c3)cc(C(=O)O)c2)cc1Cl [Compound 3]
IC50 [8]: 14.3 µM
IC50 [9]: 9.6 ± 2.5 µM
IC50 [11]: 2.5 ± 0.2 µM
IC50 [10]: 21.3 ± 5.4 µM
